Measurements published in patent US20240132477A1, “Benzimidazole Derivatives and Their Use As Inhibitors of ITK For The Treatment of Skin Disease” (PFIZER INC., priority 2020, published 2024).

Tests used:
[1] = molecular target: IL-2-Inducible T-Cell Kinase (ITK) (Homo sapiens (Human), UniProt Q08881); test: ITK enzyme assay; assay type: biochemical; conditions: geometric mean of count n; ITK FL enzyme, BTK peptide substrate
Protocol: IL-2-Inducible T-Cell Kinase (ITK) Activity, IC50 (uM)
ITK activity was determined by measuring the effect of a test compound in an ITK enzyme assay.
1.0 M HEPES Buffer pH 7.5 solution was prepared as follows: 238.3 g HEPES free acid (Sigma) and 800 mL of water were combined, and the mixture was stirred until complete dissolution. The pH was adjusted to 7.5 via titration with 5N NaOH and the volume adjusted to 1000 mL. The solution was filtered and sterilized.
ITK assay buffer was prepared as follows: 50 mL of HPLC-grade water was treated with 2 mL of 1.0 M HEPES Buffer, 500 μL of 2% Gelatin (Sigma), 1.0 mL of aqueous MgCl2 solution (1.0 M), and 1.0 mL of aqueous glutathione solution (0.5 M), and the solution was mixed. The solution was brought to 99 mL in a graduated cylinder by addition of water and sterilized through a 0.2 μm filter. 0.1 mL of Brij-35™ Surfact-AmpS™ Detergent Solution (10% w/v aqueous solution, ThermoFisher) and 1.0 mL of ATP (Teknova, 100 mM) were added and the solution was mixed.
Preparation of 1.33×ITK enzyme solution was as follows: 49.99 mL of ITK assay buffer was treated with 4.1 μL of ITK enzyme (ITK FL (N-Flag and C-His tagged, ˜72 kDa) Lake Pharma, 0.25 mg/ml in a buffer containing 25 mM Tris pH 7.8, 150 mM NaCl, 10% glycerol and 2 mM TCEP) and the mixture was gently agitated. The resulting solution was stored on ice. 30 Minutes prior to use, the enzyme solution was removed from ice and equilibrated to RT by incubation in a RT water bath.
Preparation of 4×ITK substrate solution was as follows: 50 mL of ITK assay buffer was treated with 100 μL of BTK peptide (China Peptide Company, 2 mM stock solution in DMSO). The tube was capped, mixed by gently inverting the tube, and then stored on ice. 30 Minutes prior to use, the substrate solution was removed from ice and equilibrated to RT by incubation in a RT water bath.
At the time of assay, 7.5 μL of the 1.33×ITK enzyme solution was added to plate wells containing 0.1 μL of varying concentrations of test compound in DMSO. The plate was incubated 30 min at RT. The plate wells were each treated with 2.5 uL of the 4×ITK substrate solution and the plate was sealed (TopSeal™, Perkin Elmer). The plate was spun at 1000 rpm for 30 sec and then incubated for 60 min at RT. The seal was removed, and each well was treated with 10 μL of Stop/Detect Buffer (20 mM HEPES pH 7.5, 0.01% gelatin, 1 nM LANCE PT66 (Perkin Elmer), 16.5 μg/ml Surelight APC (Perkin Elmer), 10 mM EDTA, 250 mM NaCl). The plate was again covered and was spun at 1000 rpm for 30 seconds. The plate was allowed to incubate overnight at RT and in a closed carrier to reduce dehydration. The seal was removed, and the fluorescence was read with a plate reader with […]. The concentrations and resulting effect values for the tested compound were plotted and the concentration of compound required for 50% effect (IC50) was determined with the four-parameter logistic dose response equation.

[2] = tested on: IL-2 in supernatants from activated CD4+ human T-cells; test: IL-2 inhibition in supernatants from activated CD4+ human T-cells (cisbio HTRF); assay type: cell-based; conditions: T-cell; geometric mean of count n; activated CD4+ human T-cells, 20 to 24 hrs; read-out: IL-2 IC50
Protocol: IL-2-Inhibition Activity, IC50 (uM)
IL-2 inhibition activity in supernatants from activated CD4+ human T-cells was determined by measuring the effect of a test compound on the activity using the cisbio HTRF™ technology.
Human CD4+ T cells were activated with CD3/CD28 for 3 days and expanded for an additional 4-6 days (7 to 9 days total). On day 0, frozen CD4+ T cells were thawed, treated with CD3/CD28 Dynabeads, and incubated at 37° C./5% CO2. On day 3, the beads were removed, and the cells were diluted to 5×10^5 cells/cm^2, placed in G-Rex10 flask, and incubated at 37° C./5% CO2. On day 7 to day 9 the cells were removed from the G-Rex flasks, counted and diluted back to 1×10^6 cells/ml in standard tissue culture flask.
The expanded CD4+ T-cells were centrifuged at 300×g for 10 minutes and resuspended to 0.5 million cells per ml (30,000 cells/well). 60 μl of CD4+ T cells were added per well to a 384 well plate containing 0.1 μL of varying concentrations of test compound in DMSO. The plates were incubated for 15 min at 37° C./5% CO2. 20 μl of diluted ImmunoCult™ (STEMCELL Technologies, 1:12.5 in T cell assay media) were added to all wells of the plate (1:50 final assay concentration). The plates were incubated for an additional 20 to 24 hrs at 37° C./5% CO2. The plates were centrifuged at 300×g for 10 minutes. 16 μL of supernatant was removed and combined with 4 μl of IL-2 HTRF Abs. (cisbio kit). Plates were incubated for 3 hours at RT and read with an EnVision plate reader at 665 nm and 615 nm wavelengths. The concentrations and resulting effect values for the tested compound were plotted and the concentration of compound required for 50% effect (IC50) was determined with the four-parameter logistic dose response equation.

IL-2-Inducible T-Cell Kinase (ITK), sequence (Q08881 whole entry): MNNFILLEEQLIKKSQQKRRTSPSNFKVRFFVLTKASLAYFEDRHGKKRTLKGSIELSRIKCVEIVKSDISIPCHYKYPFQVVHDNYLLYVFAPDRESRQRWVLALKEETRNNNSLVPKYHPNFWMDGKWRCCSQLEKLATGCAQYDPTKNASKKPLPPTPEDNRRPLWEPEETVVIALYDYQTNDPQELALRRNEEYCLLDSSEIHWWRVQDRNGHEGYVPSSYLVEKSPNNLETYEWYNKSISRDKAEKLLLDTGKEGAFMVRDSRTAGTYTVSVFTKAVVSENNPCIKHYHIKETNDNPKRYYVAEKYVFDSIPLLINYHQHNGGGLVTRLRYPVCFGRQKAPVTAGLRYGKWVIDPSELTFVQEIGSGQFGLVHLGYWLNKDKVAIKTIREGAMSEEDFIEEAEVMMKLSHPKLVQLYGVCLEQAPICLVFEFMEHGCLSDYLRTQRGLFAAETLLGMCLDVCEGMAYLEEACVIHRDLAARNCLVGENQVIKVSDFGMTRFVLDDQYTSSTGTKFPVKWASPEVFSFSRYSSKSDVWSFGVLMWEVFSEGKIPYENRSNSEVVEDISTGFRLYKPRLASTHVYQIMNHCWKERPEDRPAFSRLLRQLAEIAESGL

Row | Compound | IC50 [1] | IC50 [2]
1 | CC(=O)N(C)c1cc2nc(-c3n[nH]c4c3C[C@@H]3C[C@]3(C)C4)[nH]c2c(F)c1C [Example 8, N-(7-fluoro-6-methyl-2-((4aS,5aR)-5a-methyl-1,4,4a,5,5a,6-hexahydrocyclopropa[f]indazol-3-yl)-1H-benzo[d]imidazol-5-yl)-N-methylacetamide] | 20 nM | 129 nM
2 | C[C@H](C(=O)N(C)c1cc(F)c2nc(-c3n[nH]c4c3C[C@@H]3C[C@]3(C)C4)[nH]c2c1)N1CCCOC1=O [Example 10, (R)-N-(4-fluoro-2-((4aS,5aR)-5a-methyl-1,4,4a,5,5a,6-hexahydrocyclopropa[f]indazol-3-yl)-1H-benzo[d]imidazol-6-yl)-N-methyl-2-(2-oxo-1,3-oxazinan-3-yl)propenamide] | 49 nM | 342 nM
3 | Cc1cc2[nH]c(-c3n[nH]c4c3C[C@@H]3C[C@]3(C)C4)nc2cc1N(C)C(=O)[C@H]1CCOC1 [Example 40, (S)-N-Methyl-N-(6-methyl-2-((4aS,5aR)-5a-methyl-1,4,4a,5,5a,6-hexahydrocyclopropa[f]indazol-3-yl)-1H-benzo[d]imidazol-5-yl)tetrahydrofuran-3-carboxamide] | 13 nM | 114 nM
4 | Cc1cc2[nH]c(-c3n[nH]c4c3C[C@@H]3C[C@]3(C)C4)nc2cc1N(C)C(=O)[C@H](C)N1CCCC1=O [Example 25, (S)-N-Methyl-N-(6-methyl-2-((4aS,5aR)-5a-methyl-1,4,4a,5,5a,6-hexahydrocyclopropa[f]indazol-3-yl)-1H-benzo[d]imidazol-5-yl)-2-(2-oxopyrrolidin-1-yl)propenamide] | 72 nM | 572 nM
5 | Cc1cc2[nH]c(-c3n[nH]c4c3C[C@@H]3C[C@]3(C)C4)nc2cc1N(C)C(=O)C(C)N1CCCOCC1 (stereo partly drawn) [Example 15, N-methyl-N-(6-methyl-2-((4aS,5aR)-5a-methyl-1,4,4a,5,5a,6-hexahydrocyclopropa[f]indazol-3-yl)-1H-benzo[d]imidazol-5-yl)-2-(1,4-oxazepan-4-yl)propenamide] | 42 nM | 166 nM
6 | Cc1cc2[nH]c(-c3n[nH]c4c3C[C@@H]3C[C@]3(C)C4)nc2cc1N(C)C(=O)C1(C)CC1 [Example 24, N,1-Dimethyl-N-(5-methyl-2-((4aS,5aR)-5a-methyl-1,4,4a,5,5a,6-hexahydrocyclopropa[f]indazol-3-yl)-1H-benzo[d]imidazol-6-yl)cyclopropane-1-carboxamide] | 37 nM | 259 nM
7 | CC(=O)N(C)c1ccc2[nH]c(-c3n[nH]c4c3C[C@H]3C(F)(F)[C@@]3(C)C4)nc2c1 [Example 3, N-(2-((4aR,5aS)-5,5-difluoro-5a-methyl-1,4,4a,5,5a,6-hexahydrocyclopropa[f]indazol-3-yl)-1H-benzo[d]imidazol-5-yl)-N-methylacetamide] | 821 nM | 848 nM
8 | CC(=O)N(C)c1cc2nc(-c3n[nH]c4c3C[C@@H]3C[C@]3(C)C4)[nH]c2cc1Br [Example 9, N-(6-bromo-2-((4aS,5aR)-5a-methyl-1,4,4a,5,5a,6-hexahydrocyclopropa[f]indazol-3-yl)-1H-benzo[d]imidazol-5-yl)-N-methylacetamide] | 20 nM | 139 nM
9 | CC[C@@H](C(=O)N(C)c1cc2nc(-c3n[nH]c4c3C[C@@H]3C[C@]3(C)C4)[nH]c2cc1C)N1CCCC1=O [Example 27, (S)-N-Methyl-N-(6-methyl-2-((4aS,5aR)-5a-methyl-1,4,4a,5,5a,6-hexahydrocyclopropa[f]indazol-3-yl)-1H-benzo[d]imidazol-5-yl)-2-(2-oxopyrrolidin-1-yl)butanamide] | 77 nM | 489 nM

Molecules with a lower IC50 [1], results first:

Row | IC50 [1] | IC50 [2] | Compound
10 | 4 nM | 79 nM | CC(=O)N(C)CC(=O)N(C)c1cc2nc(-c3n[nH]c4c3C[C@@H]3C[C@]3(C)C4)[nH]c2cc1C [Example 21, N-Methyl-N-(5-methyl-2-((4aS,5aR)-5a-methyl-1,4,4a,5,5a,6-hexahydrocyclopropa[f]indazol-3-yl)-1H-benzo[d]imidazol-6-yl)-2-(N-methylacetamido)acetamide]
11 | 6 nM | 47 nM | CCCC(=O)N(C)c1cc2nc(-c3n[nH]c4c3C[C@@H]3C[C@]3(C)C4)[nH]c2cc1C [Example 26, N-Methyl-N-(6-methyl-2-((4aS,5aR)-5a-methyl-1,4,4a,5,5a,6-hexahydrocyclopropa[f]indazol-3-yl)-1H-benzo[d]imidazol-5-yl)butyramide]
12 | 7 nM | 49 nM | Cc1cc2nc(-c3n[nH]c4c3C[C@@H]3C[C@]3(C)C4)[nH]c2cc1N(C)C(=O)C1C[C@@H]2[C@H](C1)C2(F)F (stereo partly drawn) [Example 13, (1R,5S)-6,6-difluoro-N-methyl-N-(5-methyl-2-((4aS,5aR)-5a-methyl-1,4,4a,5,5a,6-hexahydrocyclopropa[f]indazol-3-yl)-1H-benzo[d]imidazol-6-yl)bicyclo[3.1.0]hexane-3-carboxamide]
13 | 4 nM | 43 nM | Cc1cc2[nH]c(-c3n[nH]c4c3C[C@@H]3C[C@]3(C)C4)nc2cc1N(C)C(=O)CN1CCCCCC1=O [Example 34, N-Methyl-N-(6-methyl-2-((4aS,5aR)-5a-methyl-1,4,4a,5,5a,6-hexahydrocyclopropa[f]indazol-3-yl)-1H-benzo[d]imidazol-5-yl)-2-(2-oxoazepan-1-yl)acetamide]
14 | 7 nM | 47 nM | Cc1cc2nc(-c3n[nH]c4c3C[C@@H]3C[C@]3(C)C4)[nH]c2cc1N(C)C(=O)C1(F)CCOCC1 [Example 12, 4-fluoro-N-methyl-N-(5-methyl-2-((4aS,5aR)-5a-methyl-1,4,4a,5,5a,6-hexahydrocyclopropa[f]indazol-3-yl)-1H-benzo[d]imidazol-6-yl)tetrahydro-2H-pyran-4-carboxamide]
15 | 8 nM | 67 nM | Cc1cc2[nH]c(-c3n[nH]c4c3C[C@@H]3C[C@]3(C)C4)nc2cc1N(C)C(=O)C1CC1 [Example 19, N-Methyl-N-(5-methyl-2-((4aS,5aR)-5a-methyl-1,4,4a,5,5a,6-hexahydrocyclopropa[f]indazol-3-yl)-1H-benzo[d]imidazol-6-yl)cyclopropanecarboxamide]
16 | 5 nM | 57 nM | Cc1cc2[nH]c(-c3n[nH]c4c3C[C@@H]3C[C@]3(C)C4)nc2cc1N(C)C(=O)C1CCC1 [Example 36, N-Methyl-N-(6-methyl-2-((4aS,5aR)-5a-methyl-1,4,4a,5,5a,6-hexahydrocyclopropa[f]indazol-3-yl)-1H-benzo[d]imidazol-5-yl)cyclobutanecarboxamide]
